Assay results taken from the NIST ThermoML archive (doi:10.1021/je700140j).

Assay: xn = mol fraction of the nth substance listed
Settings: for mass density / viscosity: 100.8 kPa, Liquid; for surface tension liquid-gas: Ring tensiometer

OCc1ccccc1 [benzenemethanol] + CC(C)O
Settings | mass density, 308.15 K [kg/m3] | mass density, 318.15 K [kg/m3] | surface tension liquid-gas, 318.15 K [mN/m] | viscosity, 308.15 K [mPa·s] | viscosity, 318.15 K [mPa·s]
x2 = 0 | – | 1025.72 | 36.75 | – | 3.12
x2 = 0.05 | – | 1017.09 | 35.75 | – | 2.989
x2 = 0.1 | – | 1007.96 | 34.76 | – | 2.864
x2 = 0.15 | – | 998.38 | 33.77 | – | 2.745
x2 = 0.2 | – | 988.43 | 32.78 | – | 2.628
x2 = 0.25 | 986.26 | 978.11 | 31.81 | 3.23 | 2.513
x2 = 0.3 | 975.59 | 967.39 | 30.83 | 3.076 | 2.4
x2 = 0.35 | 964.56 | 956.29 | 29.85 | 2.921 | 2.285
x2 = 0.4 | 953.08 | 944.75 | 28.9 | 2.772 | 2.172
x2 = 0.45 | 941.19 | 932.79 | 27.95 | 2.631 | 2.059
x2 = 0.5 | 928.79 | 920.32 | 27.05 | 2.49 | 1.953
x2 = 0.55 | 915.93 | 907.36 | 26.25 | 2.37 | 1.858
x2 = 0.6 | 902.49 | 893.86 | 25.48 | 2.256 | 1.769
x2 = 0.65 | 888.53 | 879.84 | 24.73 | 2.145 | 1.68
x2 = 0.7 | 874.02 | 865.32 | 23.98 | 2.042 | 1.594
x2 = 0.75 | 858.91 | 850.19 | 23.23 | 1.946 | 1.511
x2 = 0.8 | 843.1 | 834.29 | 22.48 | 1.851 | 1.434
x2 = 0.85 | 826.58 | 817.75 | 21.73 | 1.761 | 1.359
x2 = 0.9 | 809.39 | 800.5 | 20.96 | 1.675 | 1.295
x2 = 0.95 | 791.45 | 782.46 | 20.19 | 1.602 | 1.228
